From US6902881B2, “Compounds and methods for regulating cell differentiation” (priority 2000, dated 2005) come the findings set out here.

The subject of data set [1] is Liposarcoma cells. The experiment in a line: Cellular triacyl glycerol (TAG) content, liposarcoma. Conditions: insulin 5 μg/ml, pituitary extract 20 μg/ml, biliverdin 4 × 10^−7 M where present. In kind it is cell-based, human. How it is done:
Expression of differentiation markers. Carcinoembryogenic antigen in cell supernatants collected each three days was assayed by standard ELISA determinations using an IMX assay for quantitative measurement of the antigen. Cellular triacyl glycerol content was measured spectrophotometrically by enzymatic hydrolysis and analysis of the amount of glycerol released using a standard assay, Triglyceride (INT) 10 (Sigma Diagnostics). Cellular alkaline phosphatase activity was determined by measuring the fluorescence change induced by the hydrolysis of 4-methylumbelliferylphosphate. The fluorescence is detected at 450 nm with an excitation of 365 nm, using a Jobin Ivon-Spex Fluoro Max-2 fluorimeter. The alkaline phosphatase activity detected was expressed in units of μmol/mg protein/min.
Liposarcoma cells also accumulate triacyl glycerol in response to biliverdin. The extent of the accumulation is determined by the composition of the incubation media. Triacyl glycerol is induced in liposarcoma cells by insulin alone. The amount increases when bovine pituitary extract is added with the insulin. The highest production is achieved, however, when biliverdin is combined with insulin plus bovine pituitary extract.

Data set [2] deals with Normal Fibroblast (3T3-L1 fibroblasts). Put plainly: Cellular triacyl glycerol (TAG) content, normal fibroblast. In kind it is cell-based. On the procedure: Expression of differentiation markers. Carcinoembryogenic antigen in cell supernatants collected each three days was assayed by standard ELISA determinations using an IMX assay for quantitative measurement of the antigen. Cellular triacyl glycerol content was measured spectrophotometrically by enzymatic hydrolysis and analysis of the amount of glycerol released using a standard assay, Triglyceride (INT) 10 (Sigma Diagnostics). […] The fluorescence is detected at 450 nm with an excitation of 365 nm, using a Jobin Ivon-Spex Fluoro Max-2 fluorimeter. The alkaline phosphatase activity detected was expressed in units of μmol/mg protein/min. These compounds also affect the timing for the fat accumulation. After 9 days of incubation with insulin and bovine pituitary extract, but without biliverdin, the fat droplets in the cells are small and scattered diffusely throughout the cell. These globules continue to enlarge to fill most of the cytoplasmic space by day 14. In contrast, by day 7 the cells incubated in the presence of biliverdin already contain large, grouped and prominent droplets. While the triacyl glycerol content increases in both HT 29 and liposarcoma cells, the fat droplets in HT 29 cells are smaller than those that fill the cytoplasm of the liposarcoma cells. 3T3-L1 fibroblasts differentiate into adipocytes in the presence of insulin (Table VII). In the absence of biliverdin, this hormone increases the triacylglycerol content of 3T3-L1 fibroblasts by 3-fold relative to control. When biliverdin is added, a progressively greater content of triacyl glycerol is achieved at day 9. The increase is dependent on the biliverdin concentration. At the highest concentration used, 4×10^−7 M, there is a 5.8-fold increase of triacyl glycerol content over that of the undifferentiated fibroblasts (Table VII). This almost doubles the amount in the cells incubated with differentiation medium alone and is nearly as high as observed with troglitazone. At a lower biliverdin concentration, 10^−8 M, there is a 3.5-fold increase compared to control values. Remarkably, the amounts of biliverdin required to achieve the effects on proliferation, cell cycle and differentiation marker up-regulation, i.e. 10^−7-10^−06 M, are the same as those needed to re-establish the capacity of embryos depleted of the tetrapyrrole by treatment with UV-light to form a dorsal axis.

Data set [3] relates to UV-irradiated Xenopus laevis stage 1 embryos. Put plainly: Rescue of dorsal axis formation in UV-irradiated embryos, scored by dorsal anterior index (DAI). In kind it is in vivo. How it is done:
(§1) Several hundred spawned eggs were fertilized in vitro and incubated at 16 to 18° C. […] The vegetal surfaces of some of these embryos were irradiated with one or the other sources of UV light within 10 min of fertilization for 20-30 min. […] The embryos were not disturbed, touched or tipped from the moment of fertilization, during UV irradiation or for the duration of development. […] A score of 5 defines a normal dorsal axis, 4 a microcephalic, 3 a cyclopic, 2 an anoptic, 1 an acephalic and 0 an adorsal embryo.
The biological activities of biliverdin and its derivatives were tested by adding each of them to the incubation solution of embryos after the termination of the UV light exposure to either 254 or 366 nm UV light and at selected time periods between T ƒfm=0.4-2.5. Final concentrations of biliverdin ranged from 0.05 to 5 μM in less than 1% ethanol. […] An extinction coefficient of 51,000 was utilized to calculate their concentrations. All petri dishes were covered with aluminum foil to avoid light exposure. The extent of dorsal axis formation was analyzed by the morphological criteria described above.
Stage 1 embryos were exposed to UV-light source emitting at 366 nm (Mineralight UVSL-58, Ultraviolet Products, Inc., San Gabriel, Calif.) as described and then incubated in the presence of pure candidate DCD or commercially available biliverdin (Sigma-Aldrich, St. Louis, Mo.) at final concentrations from 0.05 to 1.2 μM in less than 1% ethanol. The concentrations were calculated using a molar extinction coefficient of 51,000. One group of embryos was not exposed to UV light but was incubated in the presence of 0.5 μM of candidate DCD.

In data set [4] the test system is control fertilized oocytes unexposed to UV light. Put plainly: Development of control embryos unexposed to UV light incubated with the compounds (dysmorphogen test). Conditions: control fertilized oocytes unexposed to UV light incubated with the compound. On the procedure:
as §1
The biological activities of biliverdin and its derivatives were tested by adding each of them to the incubation solution of embryos after the termination of the UV light exposure to either 254 or 366 nm UV light and at selected time periods between T ƒfm=0.4-2.5. Final concentrations of biliverdin ranged from 0.05 to 5 μM in less than 1% ethanol. […] The extent of dorsal axis formation was analyzed by the morphological criteria described above.
Stage 1 embryos were exposed to UV-light source emitting at 366 nm (Mineralight UVSL-58, Ultraviolet Products, Inc., San Gabriel, Calif.) as described and then incubated in the presence of pure candidate DCD or commercially available biliverdin (Sigma-Aldrich, St. Louis, Mo.) at final concentrations from 0.05 to 1.2 μM in less than 1% ethanol. The concentrations were calculated using a molar extinction coefficient of 51,000. […]

The test system of data set [5] is HT29 colon cancer cells. Put plainly: Cellular proliferation and viability of HT29 colon cancer cells. In kind it is cell-based, human. On the procedure:
Cell Culture Conditions. Human HT 29 colon cancer cells were purchased from the American Type Culture Collection. Cells were maintained in Dulbecco's Modified Eagle's Medium (DME) supplemented with 5% heat-inactivated fetal bovine serum, 2 mM glutamine, and antibiotics (DME/5%). All cell lines were incubated in a humidified 5% CO2/air environment. They were maintained at 37° C. in 5% CO2 covered in aluminum foil to prevent exposure to the light. A total of 1×10^6 cells were incubated per flask and allowed to attach overnight. Media was changed every third day. Cell counts were performed on a Coulter Counter following detachment of cells by standard trypsinization procedures. […] The period of exposure was followed by incubation in the absence of biliverdine. Cell numbers were monitored until proliferation resumed. The production of CEA and alkaline phosphatase was measured as described below.
The HT29 colon cancer cells were incubated with different concentrations of biliverdine and their response studied to identify the concentration ranges required to elicit a biological and/or a toxicological response (Table III).

The test system of data set [6] is p 21 content in HT 29 Colon Cancer Cells. Put plainly: p21 content in HT 29 colon cancer cells. The class given is cell-based, human. Conditions: HT 29 low-density culture. On the procedure:
Biliverdin IXα exerts powerful effects on human colon cancer HT 29 cells. Normally, the contents of p21 and p27, known inhibitors of the CDK system, increase as control HT 29 cells become confluent and reach stationary phase. […] In contrast, addition of 4×10^−7 M biliverdin to the incubation medium of the low-density cultures, results in persistence and/or progressive increase in p21 and p27 content starting as early as 16 hs. This effect on p21 induction is dependent on one or both of the propionic acid side chains of biliverdin.

For “Insulin: hormone; differentiates 3T3-L1 fibroblasts into adipocytes”, the “% Change of TAG” value came out at 139% in data set [1] and 304% in data set [2] (Normal Fibroblast, insulin 5 μg/ml, biliverdin 4 × 10^−7 M where present). The TAG in data set [1] (control 12.3) is 17.1 mg/10^6 cells; in data set [2] (Normal Fibroblast, insulin 5 μg/ml, biliverdin 4 × 10^−7 M where present, control 9.3) it was 28.3 mg/10^6 cells. Also, the “increase of triacylglycerol content relative to control” value in data set [2] (3T3-L1 fibroblasts, insulin in the absence of biliverdin) amounted to 3 fold.

For the molecule `C=CC1=C(C)/C(=C/C2=NC(=C\c3[nH]c(/C=C4\NC(=O)C(C)=C4C=C)c(C)c3CCC(=O)OC)/C(CCC(=O)OC)=C2C)NC1=O.Cl` [biliverdin dimethyl ester hydrochloride, reference compound], the “recovery of dorsal axial structures” value in data set [3] (254 or 366 nm UV-irradiated embryos, μM amounts) was “does not induce recovery”. For the same molecule, the “recovery of dorsal axis formation” value in data set [3] (UV-irradiated embryos, 3.7 μM) was “no recovery”. In addition, in data set [4], the “average DAI of control embryos” value stood at 5. In addition, in data set [5], the “activity on human colon adenocarcinoma cells (p21/p27, G1, proliferation arrest, differentiation markers)” value is “inactive”. Further, the “p21 content in words” value in data set [6] is reported as “nearly undetectable”.
